The numbers were not newly measured in patent US4996231A, “Triyne cyclic carbonates” (Merck & Co., Inc., priority 1989, dated 1991), which cites them from elsewhere.

For data set [1], the system named is certain bacterial strains.
Data set [2] concerns cytosolic β-ketothiolase. The conditions noted are these: initial enzyme of cholesterol biosynthesis.
Data set [3] concerns certain fungal strains.

With `C#CC#CC#CC(O)C1OC(=O)OC1CCCCCCC(=O)O` (stereo not shown) [triyne carbonate A, 5-(1-hydroxy-2,4,6-heptatriynyl)-2-oxo-1,3 dioxolane 4heptanoic acid], the “instability of the compound in vivo” value is given as “relative instability”. Also, the “active against certain bacterial strains” value in data set [1] was “active against certain fungal and bacterial strains”. In data set [2], the “inhibitor of cytosolic β-ketothiolase” value is listed as “potent inhibitor”. Moreover, the “active against certain fungal strains” value in data set [3] was “active against certain fungal and bacterial strains”.
